Several values for one entry are separate records, joined by “and”; a condition that tells them apart may be missing. Equal entries are not always repeated.
Experiments:
Set-up in all cases: host or cells: CHO cells, stably transfected
[1] = target: T1, M1 muscarinic receptor (Homo sapiens, UniProt P11229); assay: accumulation of inositol phosphates IPX, M1 CHO cells (M1Gq); type: cell-based
T1 sequence (P11229 1-460): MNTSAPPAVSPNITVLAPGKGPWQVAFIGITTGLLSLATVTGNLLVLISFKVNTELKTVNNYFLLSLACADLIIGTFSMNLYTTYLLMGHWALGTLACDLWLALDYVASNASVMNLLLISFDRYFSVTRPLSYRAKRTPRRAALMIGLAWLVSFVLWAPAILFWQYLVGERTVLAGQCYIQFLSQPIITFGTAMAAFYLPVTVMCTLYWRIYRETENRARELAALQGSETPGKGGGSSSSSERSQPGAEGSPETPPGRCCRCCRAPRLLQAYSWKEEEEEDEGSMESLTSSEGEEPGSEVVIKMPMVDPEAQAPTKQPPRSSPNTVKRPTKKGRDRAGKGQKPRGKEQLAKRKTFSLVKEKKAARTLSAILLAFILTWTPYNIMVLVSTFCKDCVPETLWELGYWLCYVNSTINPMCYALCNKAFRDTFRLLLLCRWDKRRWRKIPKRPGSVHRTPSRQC

[2] = target: T2, M2 muscarinic receptor (Homo sapiens, UniProt P08172); assay: inhibition of forskolin-stimulated cAMP, M2 CHO cells (M2Gi); type: cell-based
T2 sequence (P08172 1-466): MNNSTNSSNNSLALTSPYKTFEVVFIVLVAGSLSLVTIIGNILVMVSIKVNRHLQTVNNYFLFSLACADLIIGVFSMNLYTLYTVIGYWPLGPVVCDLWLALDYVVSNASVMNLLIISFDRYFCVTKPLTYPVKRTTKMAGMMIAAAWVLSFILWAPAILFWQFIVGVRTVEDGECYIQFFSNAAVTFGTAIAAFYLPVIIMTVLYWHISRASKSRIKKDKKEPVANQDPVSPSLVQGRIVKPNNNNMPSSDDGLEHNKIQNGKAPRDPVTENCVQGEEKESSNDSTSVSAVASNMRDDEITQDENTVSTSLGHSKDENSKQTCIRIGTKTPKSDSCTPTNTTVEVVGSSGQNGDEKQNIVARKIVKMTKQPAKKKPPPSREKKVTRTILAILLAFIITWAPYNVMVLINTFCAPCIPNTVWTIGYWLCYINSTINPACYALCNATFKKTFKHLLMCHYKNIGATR

[3] = target: T3, M3 muscarinic receptor (Homo sapiens, UniProt P20309); assay: [3H]NMS competition binding, M3 CHO membranes; conditions: Inhibition constants (KI) as negative logarithms
[4] = target: T4, M4 muscarinic receptor (Homo sapiens, UniProt P08173); assay: inhibition of forskolin-stimulated cAMP, M4 CHO cells (M4Gi); type: cell-based
T4 sequence (P08173 1-479): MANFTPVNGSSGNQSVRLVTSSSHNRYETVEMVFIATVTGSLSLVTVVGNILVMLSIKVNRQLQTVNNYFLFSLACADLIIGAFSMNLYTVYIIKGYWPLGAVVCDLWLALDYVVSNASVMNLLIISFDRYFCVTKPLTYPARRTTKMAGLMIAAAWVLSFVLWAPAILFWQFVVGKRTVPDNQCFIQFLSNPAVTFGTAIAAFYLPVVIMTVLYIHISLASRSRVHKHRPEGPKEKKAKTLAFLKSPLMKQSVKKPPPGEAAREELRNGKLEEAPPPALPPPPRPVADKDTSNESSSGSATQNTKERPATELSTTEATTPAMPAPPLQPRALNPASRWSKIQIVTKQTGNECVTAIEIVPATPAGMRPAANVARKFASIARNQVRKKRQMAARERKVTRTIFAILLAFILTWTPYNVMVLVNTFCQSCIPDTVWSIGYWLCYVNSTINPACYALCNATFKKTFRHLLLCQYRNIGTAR

[5] = target: T3, M3 muscarinic receptor; assay: accumulation of IPX, M3 CHO cells (M3Gq); type: cell-based
[6] = target: T5, M5 muscarinic receptor (Homo sapiens, UniProt P08912); assay: accumulation of IPX, M5 CHO cells (M5Gq); type: cell-based
T5 sequence (P08912 1-532): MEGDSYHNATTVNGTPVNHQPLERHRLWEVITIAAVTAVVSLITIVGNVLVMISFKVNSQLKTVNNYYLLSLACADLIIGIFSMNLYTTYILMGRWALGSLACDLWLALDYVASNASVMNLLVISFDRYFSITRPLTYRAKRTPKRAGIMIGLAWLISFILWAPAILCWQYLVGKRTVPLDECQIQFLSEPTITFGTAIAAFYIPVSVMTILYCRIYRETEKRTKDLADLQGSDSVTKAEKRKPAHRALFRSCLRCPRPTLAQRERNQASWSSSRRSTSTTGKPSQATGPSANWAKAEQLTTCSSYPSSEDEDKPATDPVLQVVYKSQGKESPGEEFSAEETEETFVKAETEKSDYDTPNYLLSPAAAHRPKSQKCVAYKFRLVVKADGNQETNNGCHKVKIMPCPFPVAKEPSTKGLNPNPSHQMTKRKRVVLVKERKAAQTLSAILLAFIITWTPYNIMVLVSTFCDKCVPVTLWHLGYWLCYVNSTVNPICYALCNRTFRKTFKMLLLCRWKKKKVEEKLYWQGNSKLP

T3 sequence (P20309 whole entry): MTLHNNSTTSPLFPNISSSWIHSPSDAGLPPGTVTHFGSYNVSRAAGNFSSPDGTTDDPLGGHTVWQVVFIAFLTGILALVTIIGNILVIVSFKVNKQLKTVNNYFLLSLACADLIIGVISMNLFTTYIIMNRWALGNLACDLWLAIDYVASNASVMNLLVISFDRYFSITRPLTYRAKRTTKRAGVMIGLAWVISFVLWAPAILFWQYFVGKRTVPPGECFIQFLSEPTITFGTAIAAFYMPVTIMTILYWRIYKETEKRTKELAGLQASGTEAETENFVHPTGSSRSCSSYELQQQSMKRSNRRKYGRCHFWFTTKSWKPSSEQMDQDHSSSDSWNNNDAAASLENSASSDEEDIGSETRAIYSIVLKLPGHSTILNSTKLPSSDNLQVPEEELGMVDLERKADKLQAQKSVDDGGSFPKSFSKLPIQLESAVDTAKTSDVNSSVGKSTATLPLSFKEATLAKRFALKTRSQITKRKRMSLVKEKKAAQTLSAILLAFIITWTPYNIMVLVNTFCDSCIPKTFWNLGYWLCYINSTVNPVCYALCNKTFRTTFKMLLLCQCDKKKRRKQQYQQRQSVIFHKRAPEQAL

## O=C1CCCN1CC#CCN1CCCC1 [oxotremorine, reference compound]
[1]
  Kd: 0.2 µM
  RAi: 3.71 ± 0.29 and 3.84 ± 0.28
  pKA: 6.7 ± 0.1
  Δlog(τ/KA): −0.57 ± 0.06 and −0.58 ± 0.05
  τ: 2.55 ± 0.25 and 2.6 ± 0.3
[1]; pEC50
  EC50: 0.0525 µM and 0.055 µM
[2]
  EC50: 0.00575 µM
  Kd: 0.0126 µM
[2]; M2 (↓cAMP), preferential response, Table 7
  E′MAX: 43 ± 1 % inhibition
[2]; M2 (↓cAMP), preferential response, Table 7, operational efficacy
  τ: 0.96 ± 0.08
[2]; M2 (↓cAMP), preferential response, relative to carbachol, Tables 2, 3, 7
  RAi: 6.34 ± 0.15
[2]; M2 (↓cAMP), preferential response, to carbachol, Tables 2, 3, 7
  Δlog(τ/KA): −0.81 ± 0.01
[2]; M2Gi (↓cAMP), Table 8
  E′MAX: 43 ± 1 % inhibition
  pEC50: 8.24 ± 0.04
  pKA: 7.9 ± 0.1
  τ: 1.0 ± 0.1
[2]; M2Gi (↓cAMP), Table 8, relative to carbachol
  RAi: 6.34 ± 0.15
[2]; M2Gi (↓cAMP), Table 8, to carbachol
  Δlog(τ/KA): −0.81 ± 0.01
[3]; M3, high site
  Ki: 0.01 µM
[3]; M3, low site
  Ki: 0.447 µM
[4]
  Kd: 0.0316 µM
[4]; CHO
  Emax: 48 ± 2%
[4]; M4 (↓cAMP), preferential response, Table 7
  pEC50: 7.85 ± 0.04
[4]; M4 (↓cAMP), preferential response, Table 7, operational efficacy
  τ: 1.17 ± 0.08
[4]; M4 (↓cAMP), preferential response, relative to carbachol, Tables 2, 3, 7
  RAi: 3.81 ± 0.16
[4]; M4 (↓cAMP), preferential response, to carbachol, Tables 2, 3, 7
  Δlog(τ/KA): −0.62 ± 0.08
[4]; M4Gi (↓cAMP), Table 8
  E′MAX: 48 ± 2 % inhibition
  pEC50: 7.85 ± 0.04
  pKA: 7.5 ± 0.1
  τ: 1.2 ± 0.1
[4]; M4Gi (↓cAMP), Table 8, relative to carbachol
  RAi: 3.81 ± 0.16
[4]; M4Gi (↓cAMP), Table 8, to carbachol
  Δlog(τ/KA): −0.62 ± 0.08
[5]
  EC50: 0.0955 µM
  E′MAX: 22 ± 2 fold over basal
  Kd: 0.398 µM
  RAi: 4.14 ± 0.38 and 4.14 ± 0.41
  pEC50: 7.02 ± 0.04
  pKA: 6.4 ± 0.1
  Δlog(τ/KA): −0.62 ± 0.06
  τ: 2.97 ± 0.30 and 3.0 ± 0.3
[6]
  Kd: 0.251 µM
[6]; M5 (↑IPX), preferential response, Table 7
  E′MAX: 16 ± 1 fold over basal
[6]; M5 (↑IPX), preferential response, Table 7, operational efficacy
  τ: 2.60 ± 0.30
[6]; M5 (↑IPX), preferential response, relative to carbachol, Tables 2, 3, 7
  RAi: 4.12 ± 0.26
[6]; M5 (↑IPX), preferential response, to carbachol, Tables 2, 3, 7
  Δlog(τ/KA): −0.62 ± 0.07
[6]; M5Gq (↑IPX), Table 8
  E′MAX: 16 ± 1 fold over basal
  pKA: 6.6 ± 0.1
  τ: 2.2 ± 0.3
[6]; M5Gq (↑IPX), Table 8, relative to carbachol
  RAi: 4.37 ± 0.29
[6]; M5Gq (↑IPX), Table 8, to carbachol
  Δlog(τ/KA): −0.64
[6]; pEC50, M5 (↑IPX), preferential response, Table 7
  EC50: 0.0708 µM
[6]; pEC50, M5Gq (↑IPX), Table 8
  EC50: 0.0741 µM
